Assay results: patent US5770604A, “Aconitine compound and an antipyretic/analgesic/anti-inflammatory agent” (priority 1994, dated 1998)

Columns and labels:
Format in all cases: in vivo, mice (Std:ddY, male)
[1] = tested on: pain threshold (tail-pressure); assay: Analgesic activity by the tail-pressure method (s.c.); details: mouse, 10 mg/10 ml at 10 ml/kg s.c., 1 hour after administration, mean ± standard error
Method: (1) Measurement of Analgesic Activity by the Tail-Pressure Method
Std:ddY Strain male mice (20-25 g) were fasted for one day before the experiment, and were used. After test compounds shown in Table 1 was formed to a salt with tartaric acid, this salt was dissolved in 0.9% physiological saline solutions at the rate of 10 mg/10 ml to give the test compoun d solution . As a control, 0.9% physiological saline solution was used. A tail-pressure apparatus was used in this experiments. Before the administration of test compounds, the pain threshold was measured twice at intervals of 30 minutes and those mice indicating a pain threshold of 50 to 100 mmHg were selected and used. The pain threshold of each mouse was measured at 1 hour after test compound solution mentioned above was administered at 10 ml/kg, s.c. 0.9% Physiological saline solution as a control was administered at 10 ml/kg, s.c . The results were described as an inhibition rate (%) obtained from the following equation. Cutoff level of pressure was defined to be 230 mmHg for the prevention of the damage of mouse tail.
Inhibition rate (%)=(A-B)×100/(C-B)
A: Pain threshold (mmHg) after the administration of test compound solution
B: Pain threshold (mmHg) before the administration of test compound solution
C: Cutoff pressure (230 mmHg)

[2] = tested on: nociceptive response (licking); assay: Analgesic activity by the hot-plate method; details: mouse, 52° C. plate, solution 10 mg/10 ml, mean ± standard error
Method: Measurement of Analgesic Activity by the Hot-Plate Method
Std:ddY Strain male mice (20-25 g) were fasted for one day before the experiment, and were used. After compounds shown in Table 1 were formed to the tartaric acid salts, these compounds were dissolved in 0.9% physiologocal saline solution at the rate of 10 mg/10 ml, respectively and these solution were used as test compound solution. In a control, 0.9% physiological saline solution was used. Mice were placed on a cyrindric hot plate (diameter: 22 cm, height: 11 cm) made of copper which was fixed in a water bath adjusted to 52° C. so that each animal's four paws came into contact with the plate and the time taken to show the nociceptive response (licking) as an index of pain was measured. Mice showing response latency above 25 seconds were excluded from the experiment. To prevent a burn damage of mouse tissue by heating, cutoff time of 50 seconds was defined. The results were described as an inhibition rate (%) obtained from the following equation.
Inhibition rate (%)=(A-B)×100/(50-B)
A: Response latency (seconds) after the administration of test compound solution
B: Response latency (seconds) before the administration of test compound solution

[3] = tested on: pain threshold (tail-pressure); assay: Tail-pressure method, comparison with morphine (i.v.); details: for Inhibition rate: mean ± standard error
Method: (2) Comparison with Morphine
Std:ddY Strain male mice (20-25 g) were fasted for one day before the experiment, and were used. In this experiment, the tartaric acid salt of a compound of number (2) in Table 1 and morphine hydrochloride as a possitive control were used. This tartaric acid salt was dissolved in 0.9% physiological saline solution at the rates of 5 mg/2 ml, 3 mg/2 ml and 1 mg/2 ml. Morphine hydrochloride was dissolved in 0.9% physiological saline solution at the rates of 5 mg/2 ml, 3 mg/2 ml and 1 mg/2 ml. As a negative control, 0.9% phisiological saline solution was used. A tail-pressure apparatus was used in this experiments. Before the administration of test compounds, the pain threshold was measured twice at intervals of 30 minutes and those mice indicating a pain threshold of 50 to 100 mmHg were selected and used. The pain threshold of each mouse was measured at 10, 20 and 30 minutes after test compound solution mentioned above was administered at 2 ml/kg, i.v. 0.9% Physiological saline solution as a control was administered i.v. The results were described as an inhibition rate (%) indicating in the preceding paragraph (1).

[4] = tested on: pain threshold (tail-pressure); assay: Tail-pressure method, experiment combined with morphine antagonist (levallorphan); details: 10 mg/kg i.v., mean ± standard error
Method: (4) Experiment Combined with Morphine Antagonist
Std:ddY Strain male mice (20-25 g) were fasted for one day before the experiment, and were used. In this experiment, the tartaric acid salt of a compound of number (2) in Table 1, morphine hydrochloride and levallorphan hydrochloride of an opioid antagonist were used. The tartaric acid salt of a compound of number (2) was dissolved in 0.9% physiological saline solution at the rate of 10 mg/2 ml. Morphine hydrochloride was dissolved in 0.9% physiological saline solution at the rate of 10 mg/2 ml. Levallorphan hydrochloride was dissolved in 0.9% physiological saline solution at the rate of 1 mg/10 ml. As a control, 0.9% physiological saline solution was used. A tail-pressure apparatus was used in this experiments. Before the administration of levallorphan hydrochloride, the pain threshold was measured twice at intervals of 30 minutes and those mice indicating a pain threshold of 50 to 100 mmHg were selected and used. Levallorphan hydrochloride solution mentioned above was administered s.c. at the rate of 10 ml/kg and, 30 minutes later, the above tartaric acid salt solution compound of number (2) or morphine hydrochloride solution was injected i.v. at the rate of 2 ml/kg, respectively. Each pain threshold was measured 10, 20 and 30 minutes after an intravenous injection. In control group, 0.9% physiological saline solution was injected i.v. at the rate of 2 ml/kg at 30 minutes after s.c. administration at 10 ml/kg of 0.9% physiological saline solution. In the single administration group of levallorphan hydrochloride, levallorphan hydrochloride solution mentioned above was administered s.c. at the rate of 10 ml/kg and, 30 minutes later, 0.9% physiological saline solution was injected i.v. at the rate of 2 ml/kg. The results were described in Table 10 as an inhibition rate (%) indicating in the preceding paragraph (1).

SMILES: CCN1CC2(COC)C(O)CC(OC)C34C5CC6(O)C(OC)C(OC(C)=O)C(O)(C5C6OC(=O)c5ccc(Cl)cc5)C(C(OC)C23)C14 (stereo not drawn) [(2), 15-O-acetyl-14-O-p-chlorobenzoylaconine]
- Inhibition rate (tail-pressure method) [1]: 43 ± 10%
- Inhibition rate (hot-plate method) [2]: 76 ± 11%
- Inhibition rate ([3]; 1 mg/kg i.v., 10 minutes): 5 ± 4%
- Inhibition rate ([3]; 1 mg/kg i.v., 20 minutes): 4 ± 4%
- Inhibition rate ([3]; 1 mg/kg i.v., 30 minutes): 2 ± 3%
- Inhibition rate ([3]; 3 mg/kg i.v., 10 minutes): 14 ± 15%
- Inhibition rate ([3]; 3 mg/kg i.v., 20 minutes): 16 ± 10%
- Inhibition rate ([3]; 3 mg/kg i.v., 30 minutes): 12 ± 12%
- Inhibition rate ([3]; 5 mg/kg i.v., 10 minutes): 38 ± 13%
- Inhibition rate ([3]; 5 mg/kg i.v., 20 minutes): 27 ± 6%
- Inhibition rate ([3]; 5 mg/kg i.v., 30 minutes): 22 ± 7%
- analgesic activity compared with morphine, in words ([3]; mouse, i.v.): had an equal analgesic activity in its strength to morphine
- Inhibition rate ([4]; with levallorphan 1 mg/kg s.c. 30 minutes before, 10 min): 86 ± 25%
- Inhibition rate ([4]; with levallorphan 1 mg/kg s.c. 30 minutes before, 20 min): 77 ± 14%
- Inhibition rate ([4]; with levallorphan 1 mg/kg s.c. 30 minutes before, 30 min): 67 ± 22%
- Inhibition rate ([4]; without levallorphan, 10 min): 85 ± 15%
- Inhibition rate ([4]; without levallorphan, 20 min): 80 ± 20%
- Inhibition rate ([4]; without levallorphan, 30 min): 65 ± 21%
